Results reported in the supplement of paper PMC10307832.

Columns and labels:
Experiment in all cases: relative viability (nuclei count vs DMSO), 5 days (fraction); higher = more cells survive
[1] = compound: O=C(Nc1cc(C(F)(F)F)cc(C(F)(F)F)c1)c1cc(Cl)ccc1O [IMD-0354] + CC(=O)Nc1cccc(-n2c(=O)n(C3CC3)c(=O)c3c(Nc4ccc(I)cc4F)n(C)c(=O)c(C)c32)c1 [Trametinib] (partner 0.02 µM)
In short: (§1)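 Lung cancer cell lines, seeded in 1536-well plates, were treated the following day by pin tool with a single drug or with five library-drug doses (not always all listed) in √10 steps on top of a fixed anchor-drug dose. Cells were fixed and nuclei stained in one step after 5 days, and nuclei were counted. Relative viability is the nuclei count for treated wells divided by that for vehicle wells, reported as medians of duplicate plates.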

[2] = compound: O=C(Nc1cc(C(F)(F)F)cc(C(F)(F)F)c1)c1cc(Cl)ccc1O [IMD-0354] + C[C@]1(O)C[C@@H](c2nc(-c3ccc4ccc(-c5ccccc5)nc4c3)c3c(N)nccn32)C1 [Linsitinib] (partner 1 µM)
In short: as §1

[3] = compound: O=C(Nc1cc(C(F)(F)F)cc(C(F)(F)F)c1)c1cc(Cl)ccc1O [IMD-0354] + Nc1ncn([C@H]2C[C@H](O)[C@@H](CO)O2)c(=O)n1 [Decitabine] (partner 2 µM)
In short: as §1

[4] = compound: Cc1cnc(CNC(=O)c2c(=O)c3ccc(N4CCCN(C)CC4)nc3n3c2sc2ccccc23)cn1 [CX-5461] + CCNC(=O)c1noc(-c2cc(C(C)C)c(O)cc2O)c1-c1ccc(CN2CCOCC2)cc1 [Luminespib] (partner 0.01 µM)
In short: as §1

Cell Line	relative viability ([1]; first compound 0.04 µM)	relative viability ([1]; first compound 0.1265 µM)	relative viability ([1]; first compound 0.4 µM)	relative viability ([1]; first compound 1.265 µM)	relative viability ([1]; first compound 4 µM)	relative viability ([2]; first compound 0.04 µM)	relative viability ([2]; first compound 0.1265 µM)	relative viability ([2]; first compound 0.4 µM)	relative viability ([2]; first compound 1.265 µM)	relative viability ([2]; first compound 4 µM)	relative viability ([3]; first compound 0.04 µM)	relative viability ([3]; first compound 0.1265 µM)	relative viability ([3]; first compound 0.4 µM)	relative viability ([3]; first compound 1.265 µM)	relative viability ([3]; first compound 4 µM)	relative viability ([4]; first compound 0.01 µM)	relative viability ([4]; first compound 0.03162 µM)	relative viability ([4]; first compound 0.1 µM)	relative viability ([4]; first compound 0.3162 µM)	relative viability ([4]; first compound 1 µM)
NCI-H1666	0.738	0.849	0.719	0.872	0.523	0.747	0.957	0.609	0.17	0.299	0.718	0.751	0.716	0.531	0.393	0.938	0.93	0.922	1.01	0.775
NCI-H1734	0.713	0.703	0.483	0.366	0.209	1.04	0.936	0.513	0.596	0.231	0.513	0.491	0.467	0.389	0.213	0.182	0.148	0.193	0.173	0.157
NCI-H1755	0.858	0.796	0.694	0.665	0.228	0.998	1.02	0.665	0.666	0.22	0.798	0.741	0.671	0.644	0.316	0.383	0.357	0.482	0.402	0.512
NCI-H1792	0.496	0.564	0.221	0.292	0.135	0.627	0.424	0.906	0.471	0.293	0.675	0.38	0.387	0.358	0.174	0.57	0.48	0.432	0.458	0.497
NCI-H1793	0.346	0.442	0.283	0.211	0.169	1.15	0.802	0.349	0.298	0.224	0.583	0.438	0.335	0.098	0.262	0.199	0.249	0.131		0.194
NCI-H1915	0.321	0.309	0.324	0.249	0.12	0.968	1.12	0.944	0.866	0.255	0.299	0.267	0.224	0.25	0.169	0.857	0.852	0.813	0.923	0.783
NCI-H1944	0.399	0.391	0.388	0.39	0.167	1.08	1.12		1.24	0.111	0.44	0.451	0.398	0.473	0.147	0.854	0.711	0.864	0.51	0.672
NCI-H1975	0.4	0.379	0.271	0.159	0.138	1.15	0.938	0.517	0.178	0.207	0.389	0.409	0.36	0.2	0.21	0.353	0.249	0.43	0.191	0.202
